Source: ChEMBL document CHEMBL5543109, “Novel β-Hairpin Antimicrobial Peptide Containing the β-Turn Sequence of -NG- and the Tryptophan Zippers Facilitate Self-Assembly into Nanofibers, Exhibiting Excellent Antimicrobial Performance” (J Med Chem, 2024)
In brackets after ≈: the same amount, converted by molar mass.

What was measured:
[1] = system: Staphylococcus aureus; assay: Antibacterial activity against Staphylococcus aureus ATCC 25923 incubated for 18 hrs by broth microdilution method; format: functional
[2] = system: Bacillus subtilis; assay: Antibacterial activity against Bacillus subtilis ATCC 23857 incubated for 18 hrs by broth microdilution method; format: functional
[3] = system: Staphylococcus epidermidis; assay: Antibacterial activity against Staphylococcus epidermidis ATCC 12228 incubated for 18 hrs by broth microdilution method; format: functional
[4] = system: Klebsiella pneumoniae; assay: Antibacterial activity against Klebsiella pneumoniae ATCC 700603 incubated for 18 hrs by broth microdilution method; format: functional
[5] = system: Escherichia coli; assay: Antibacterial activity against Escherichia coli ATCC 25922 incubated for 18 hrs by broth microdilution method; format: functional
[6] = system: Pseudomonas aeruginosa; assay: Antibacterial activity against Pseudomonas aeruginosa ATCC 27853 incubated for 18 hrs by broth microdilution method; format: functional
[7] = system: Staphylococcus aureus; assay: Antibacterial activity against methicillin resistant Staphylococcus aureus incubated for 18 hrs by broth microdilution method; format: functional
[8] = system: Staphylococcus aureus; assay: Antibacterial activity against methicillin resistant Staphylococcus aureus 113 incubated for 18 hrs by broth microdilution method; format: functional
[9] = system: Staphylococcus aureus; assay: Antibacterial activity against Staphylococcus aureus S794 incubated for 18 hrs by broth microdilution method; format: functional
[10] = system: Staphylococcus aureus; assay: Antibacterial activity against Staphylococcus aureus S125 incubated for 18 hrs by broth microdilution method; format: functional
[11] = system: Staphylococcus aureus; assay: Antibacterial activity against methicillin resistant Staphylococcus aureus 75 incubated for 18 hrs by broth microdilution method; format: functional
[12] = system: Staphylococcus aureus; assay: Antibacterial activity against Staphylococcus aureus incubated for 18 hrs by broth microdilution method; format: functional
[13] = system: Staphylococcus aureus; assay: Antibacterial activity against kanamycin resistant Staphylococcus aureus incubated for 18 hrs by broth microdilution method; format: functional
[14] = system: Staphylococcus aureus; assay: Antibacterial activity against rifampicin resistant Staphylococcus aureus incubated for 18 hrs by broth microdilution method; format: functional
[15] = system: Escherichia coli; assay: Antibacterial activity against Escherichia coli incubated for 18 hrs by broth microdilution method; format: functional
[16] = system: Escherichia coli; assay: Antibacterial activity against kanamycin resistant Escherichia coli incubated for 18 hrs by broth microdilution method; format: functional
[17] = system: Escherichia coli; assay: Antibacterial activity against rifampicin resistant Escherichia coli incubated for 18 hrs by broth microdilution method; format: functional
[18] = system: Staphylococcus aureus; assay: Bactericidal activity against Staphylococcus aureus ATCC 25923 incubated for 18 hrs by broth microdilution method; format: functional
[19] = system: Bacillus subtilis; assay: Bactericidal activity against Bacillus subtilis ATCC 23857 incubated for 18 hrs by broth microdilution method; format: functional
[20] = system: Staphylococcus epidermidis; assay: Bactericidal activity against Staphylococcus epidermidis ATCC 12228 incubated for 18 hrs by broth microdilution method; format: functional
[21] = system: Klebsiella pneumoniae; assay: Bactericidal activity against Klebsiella pneumoniae ATCC 700603 incubated for 18 hrs by broth microdilution method; format: functional
[22] = system: Escherichia coli; assay: Bactericidal activity against Escherichia coli ATCC 25922 incubated for 18 hrs by broth microdilution method; format: functional
[23] = system: Pseudomonas aeruginosa; assay: Bactericidal activity against Pseudomonas aeruginosa ATCC 27853 incubated for 18 hrs by broth microdilution method; format: functional
[24] = system: Erythrocyte; assay: Hemolytic activity in mouse erythrocytes assessed as concentration required to cause 10% hemolysis incubated for 1 hr; format: toxicity, cell-based
[25] = Retention time of the compound; format: physicochemical
[26] = system: Staphylococcus aureus; assay: Antibacterial activity against Staphylococcus aureus at 2 times MIC preincubated for 1 hr with trypsin followed by enzyme inactivation and bacterial addition and measured after 18 hrs; format: functional; details: time 19 hrs
[27] = system: Staphylococcus aureus; assay: Antibacterial activity against Staphylococcus aureus at 2 times MIC preincubated for 1 hr with chymotrypsin followed by enzyme inactivation and bacterial addition and measured after 18 hrs; format: functional; details: time 19 hrs

| Compound | MIC [1] | MIC [2] | MIC [3] | MIC [4] | MIC [5] | MIC [6] | MIC [7] | MIC [8] | MIC [9] | MIC [10] | MIC [11] | MIC [12] | MIC [13] | MIC [14] | MIC [15] | MIC [16] | MIC [17] | MBC [18] | MBC [19] | MBC [20] | also measured |
| --- | --- | --- | --- | --- | --- | --- | --- | --- | --- | --- | --- | --- | --- | --- | --- | --- | --- | --- | --- | --- | --- |
| CO/N=C(\C(=O)N[C@@H]1C(=O)N2C(C(=O)O)=C(COC(C)=O)CS[C@H]12)c1csc(N)n1 [CEFOTAXIME] | 2 µM (≈ 0.911 µg/mL) | 64 µM (≈ 29.2 µg/mL) | < 1 µM | 4 µM (≈ 1.82 µg/mL) | < 1 µM | 8 µM (≈ 3.64 µg/mL) | 256 µM (≈ 117 µg/mL) | 32 µM (≈ 14.6 µg/mL) | 256 µM (≈ 117 µg/mL) | 8 µM (≈ 3.64 µg/mL) | 256 µM (≈ 117 µg/mL) | 2 µM (≈ 0.911 µg/mL) | 0.5 µM (≈ 0.228 µg/mL) | 0.5 µM (≈ 0.228 µg/mL) | 0.5 µM (≈ 0.228 µg/mL) | 64 µM (≈ 29.2 µg/mL) | 0.5 µM (≈ 0.228 µg/mL) |  |  |  |  |
| NCCCC[C@@H](NC(=O)[C@H](N)Cc1c[nH]c2ccccc12)C(=O)N[C@H](Cc1c[nH]c2ccccc12)C(=O)N[C@H](CCCCN)C(=O)N[C@H](Cc1c[nH]c2ccccc12)C(=O)N1CCC[C@@H]1C(=O)N1CCC[C@H]1C(=O)N[C@H](Cc1c[nH]c2ccccc12)C(=O)N[C@H](CCCCN)C(=O)N[C@H](Cc1c[nH]c2ccccc12)C(=O)N[C@H](CCCCN)C(=O)N[C@H](Cc1c[nH]c2ccccc12)C(N)=O | 4 µM (≈ 7.36 µg/mL) | 2 µM (≈ 3.68 µg/mL) | 4 µM (≈ 7.36 µg/mL) | 8 µM (≈ 14.7 µg/mL) | 4 µM (≈ 7.36 µg/mL) | 8 µM (≈ 14.7 µg/mL) |  |  |  |  |  |  |  |  |  |  |  | 8 µM (≈ 14.7 µg/mL) | 2 µM (≈ 3.68 µg/mL) | 8 µM (≈ 14.7 µg/mL) | MBC [21]: 16 µM (≈ 29.5 µg/mL); MBC [22]: 4 µM (≈ 7.36 µg/mL); MBC [23]: 32 µM (≈ 58.9 µg/mL); MHC [24]: 243.5 µM; Retention_time [25]: 14.321 min; Activity [26]: 100%; Activity [27]: 100% |
| CO[C@H]1/C=C/O[C@@]2(C)Oc3c(C)c(O)c4c(O)c(c(/C=N/N5CCN(C)CC5)c(O)c4c3C2=O)NC(=O)/C(C)=C\C=C\[C@H](C)[C@H](O)[C@@H](C)[C@@H](O)[C@@H](C)[C@H](OC(C)=O)[C@@H]1C [RIFAMPIN] | < 1 µM | < 1 µM | < 1 µM | 64 µM (≈ 52.7 µg/mL) | 16 µM (≈ 13.2 µg/mL) | 32 µM (≈ 26.3 µg/mL) | 256 µM (≈ 211 µg/mL) | 0.5 µM (≈ 0.411 µg/mL) | 32 µM (≈ 26.3 µg/mL) | 0.5 µM (≈ 0.411 µg/mL) | 256 µM (≈ 211 µg/mL) | 0.5 µM (≈ 0.411 µg/mL) | 4 µM (≈ 3.29 µg/mL) | 64 µM (≈ 52.7 µg/mL) | 16 µM (≈ 13.2 µg/mL) | 32 µM (≈ 26.3 µg/mL) | 256 µM (≈ 211 µg/mL) |  |  |  |  |
| NCCCC[C@@H](N)C(=O)N[C@H](Cc1c[nH]c2ccccc12)C(=O)N[C@H](CCCCN)C(=O)N[C@H](Cc1c[nH]c2ccccc12)C(=O)N[C@H](CCCCN)C(=O)N1CCC[C@@H]1C(=O)N1CCC[C@H]1C(=O)N[C@H](CCCCN)C(=O)N[C@H](Cc1c[nH]c2ccccc12)C(=O)N[C@H](CCCCN)C(=O)N[C@H](Cc1c[nH]c2ccccc12)C(=O)N[C@H](CCCCN)C(N)=O | 32 µM (≈ 55.2 µg/mL) | 4 µM (≈ 6.9 µg/mL) | 4 µM (≈ 6.9 µg/mL) | 16 µM (≈ 27.6 µg/mL) | 8 µM (≈ 13.8 µg/mL) | 4 µM (≈ 6.9 µg/mL) |  |  |  |  |  |  |  |  |  |  |  | 64 µM (≈ 110 µg/mL) | 8 µM (≈ 13.8 µg/mL) | 8 µM (≈ 13.8 µg/mL) | MBC [21]: 16 µM (≈ 27.6 µg/mL); MBC [22]: 8 µM (≈ 13.8 µg/mL); MBC [23]: 32 µM (≈ 55.2 µg/mL); MHC [24]: > 512 µM; Retention_time [25]: 11.03 min; Activity [26]: 100%; Activity [27]: 100% |
| C[C@@H](O)[C@H]1C(=O)N2C(C(=O)O)=C(S[C@@H]3CN[C@H](C(=O)N(C)C)C3)[C@H](C)[C@H]12 [MEROPENEM] |  |  |  |  |  |  | 32 µM (≈ 12.3 µg/mL) | 0.5 µM (≈ 0.192 µg/mL) | 0.5 µM (≈ 0.192 µg/mL) | 0.5 µM (≈ 0.192 µg/mL) | 128 µM (≈ 49.1 µg/mL) | 0.5 µM (≈ 0.192 µg/mL) | 0.5 µM (≈ 0.192 µg/mL) | 0.5 µM (≈ 0.192 µg/mL) | 0.5 µM (≈ 0.192 µg/mL) | 0.5 µM (≈ 0.192 µg/mL) | 0.5 µM (≈ 0.192 µg/mL) |  |  |  |  |
| NCCCC[C@@H](N)C(=O)N[C@H](Cc1c[nH]c2ccccc12)C(=O)N[C@H](CCCCN)C(=O)N[C@H](Cc1c[nH]c2ccccc12)C(=O)N[C@H](CCCCN)C(=O)N[C@@H](CC(N)=O)C(=O)NCC(=O)N[C@H](CCCCN)C(=O)N[C@H](Cc1c[nH]c2ccccc12)C(=O)N[C@H](CCCCN)C(=O)N[C@H](Cc1c[nH]c2ccccc12)C(=O)N[C@H](CCCCN)C(N)=O | 16 µM (≈ 27.2 µg/mL) | 2 µM (≈ 3.4 µg/mL) | 4 µM (≈ 6.81 µg/mL) | 64 µM (≈ 109 µg/mL) | 8 µM (≈ 13.6 µg/mL) | 32 µM (≈ 54.5 µg/mL) |  |  |  |  |  |  |  |  |  |  |  | 64 µM (≈ 109 µg/mL) | 8 µM (≈ 13.6 µg/mL) | 8 µM (≈ 13.6 µg/mL) | MBC [21]: 128 µM (≈ 218 µg/mL); MBC [22]: 8 µM (≈ 13.6 µg/mL); MBC [23]: 128 µM (≈ 218 µg/mL); MHC [24]: > 512 µM; Retention_time [25]: 11.03 min; Activity [26]: 100%; Activity [27]: 100% |
| CN[C@@H]1[C@H](O[C@H]2[C@H](O[C@H]3[C@H](O)[C@@H](O)[C@H](N=C(N)N)[C@@H](O)[C@@H]3N=C(N)N)O[C@@H](C)[C@]2(O)C=O)O[C@@H](CO)[C@H](O)[C@H]1O [STREPTOMYCIN] |  |  |  |  |  |  | 32 µM (≈ 18.6 µg/mL) | 64 µM (≈ 37.2 µg/mL) | 128 µM (≈ 74.4 µg/mL) | 32 µM (≈ 18.6 µg/mL) | 32 µM (≈ 18.6 µg/mL) | 0.5 µM (≈ 0.291 µg/mL) | 4 µM (≈ 2.33 µg/mL) | 2 µM (≈ 1.16 µg/mL) | 4 µM (≈ 2.33 µg/mL) | 64 µM (≈ 37.2 µg/mL) | 2 µM (≈ 1.16 µg/mL) |  |  |  |  |
